For 45 molecules, Ki results are on record in US20110263629A1, “AMIDES OF DIAZABICYCLOOCTANES AND USES THEREOF” (Targacept, Inc., priority 2008, published 2011).

pKi: −log10 of the molar value.

The target in one assay is T1, human α4β2 nAChR subtype (Homo sapiens, UniProt P17787+P43681).
T1 construct: expressed in transfected cells; host or cells: SH-EP1 clonal cells expressing human α4β2
T1 sequence (P43681 29-627 limits assumed): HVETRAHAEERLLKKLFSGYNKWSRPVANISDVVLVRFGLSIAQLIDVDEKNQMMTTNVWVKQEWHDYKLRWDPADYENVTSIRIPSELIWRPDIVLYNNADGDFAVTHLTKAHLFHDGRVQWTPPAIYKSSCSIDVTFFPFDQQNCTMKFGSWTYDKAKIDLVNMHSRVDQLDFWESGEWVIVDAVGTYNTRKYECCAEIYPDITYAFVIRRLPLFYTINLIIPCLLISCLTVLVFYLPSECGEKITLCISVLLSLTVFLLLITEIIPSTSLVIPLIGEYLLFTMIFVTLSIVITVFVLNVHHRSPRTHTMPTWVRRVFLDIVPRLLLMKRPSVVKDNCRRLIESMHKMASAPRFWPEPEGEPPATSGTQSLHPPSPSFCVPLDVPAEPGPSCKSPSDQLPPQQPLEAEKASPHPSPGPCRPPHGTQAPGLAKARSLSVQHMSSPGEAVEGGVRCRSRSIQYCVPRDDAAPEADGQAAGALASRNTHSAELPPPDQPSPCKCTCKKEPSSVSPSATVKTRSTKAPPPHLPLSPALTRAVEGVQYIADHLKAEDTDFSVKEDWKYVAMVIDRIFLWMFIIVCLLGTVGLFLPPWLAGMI
T1 sequence (P17787 26-502): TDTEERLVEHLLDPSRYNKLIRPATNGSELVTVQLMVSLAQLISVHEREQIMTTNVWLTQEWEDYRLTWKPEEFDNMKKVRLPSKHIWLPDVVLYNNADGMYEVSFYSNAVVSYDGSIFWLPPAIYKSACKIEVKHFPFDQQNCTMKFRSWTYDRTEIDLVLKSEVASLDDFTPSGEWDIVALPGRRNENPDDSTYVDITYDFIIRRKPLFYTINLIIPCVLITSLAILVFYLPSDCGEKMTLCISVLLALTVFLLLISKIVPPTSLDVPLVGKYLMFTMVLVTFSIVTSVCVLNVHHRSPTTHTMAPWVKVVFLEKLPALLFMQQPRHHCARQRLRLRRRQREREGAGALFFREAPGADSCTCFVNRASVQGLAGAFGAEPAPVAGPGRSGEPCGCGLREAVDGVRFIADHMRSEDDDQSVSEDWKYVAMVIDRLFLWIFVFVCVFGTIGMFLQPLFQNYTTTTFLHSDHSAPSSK
The assay is described as follows: Radioligand binding ([3H]nicotine) at human α4β2 nAChR, SH-EP1/human α4β2 clonal cell membranes.
Conditions: not given
On the procedure:
Preparation of membranes from SH-EP1/human α4β2 clonal cells: Cell pellets from 40 150 mm culture dishes were pooled, and homogenized by Polytron (Kinematica GmbH, Switzerland) in 20 milliliters of ice-cold preparative buffer. The homogenate was centrifuged at 48,000 g for 20 minutes at 4° C. The resulting pellet was re-suspended in 20 mL of ice-cold preparative buffer and stored at −20° C.
(§1) On the day of the assay, the frozen membranes were thawed and spun at 48,000×g for 20 min. The supernatant was decanted and discarded. The pellet was resuspended in Dulbecco's phosphate buffered saline (PBS, Life Technologies) pH 7.4 and homogenized with the Polytron for 6 seconds. Protein concentrations were determined using a Pierce BCA Protein Assay Kit, with bovine serum albumin as the standard (Pierce Chemical Company, Rockford, Ill.).
(§2) Incubation was terminated by rapid filtration on a multi-manifold tissue harvester (Brandel, Gaithersburg, Md.) using GF/B filters presoaked in 0.33% polyethyleneimine (w/v) to reduce non-specific binding. Tissue was rinsed 3 times in PBS, pH 7.4. Scintillation fluid was added to filters containing the washed tissue and allowed to equilibrate. Filters were then counted to determine radioactivity bound to the membranes by liquid scintillation counting (2200CA Tri-Carb LSC, Packard Instruments, 50% efficiency or Wallac Trilux 1450 MicroBeta, 40% efficiency, Perkin Elmer).
(§3) Data were expressed as disintegrations per minute (DPMs). Within each assay, each point had 2-3 replicates. The replicates for each point were averaged and plotted against the log of the drug concentration. IC50, which is the concentration of the compound that produces 50% inhibition of binding, was determined by least squares non-linear regression. Ki values were calculated using the Cheng-Prussof equation (1973): […]
One may read the pKi as the Ki on a negative log10 scale, so that one unit is a factor of ten. For the molecule `O=C(Oc1ccc(F)cc1)N1C[C@H]2CN[C@H](C2)C1`, the negative logarithm of the Ki (pKi) is 6.51.

The same assay, now with this note: SH-EP1/human α4β2 cell membranes, 5 nM [3H]nicotine; read-out: Human α4β2 Ki.
For `CC(=O)N1C[C@@H]2CN[C@@H](C2)C1`, the negative logarithm of the Ki (pKi) is 6.14. Take `COC(=O)N1C[C@@H]2CN[C@@H](C2)C1`: the pKi was 6.92. Same read-out and setting: under `CC(C)OC(=O)N1C[C@@H]2CN[C@@H](C2)C1` stands 6.25; under `COCCOC(=O)N1C[C@@H]2CN[C@@H](C2)C1`, 6.24.

For `COCCOC(=O)N1C[C@H]2CN[C@H](C2)C1`, the negative logarithm of the Ki (pKi) is 6.51. Consider `COC(=O)N1C[C@H]2CNC[C@@H]1C2`, for which the pKi is 5.24.

The assay is the same for the next values; noted with them: read-out: Human α4β2 Ki.
As for `COC(=O)N1CC2CNC(C2)C1` (stereo not shown), the pKi is 7.92. Same read-out and setting: under `O=C(C1CCOC1)N1C[C@@H]2CN[C@@H](C2)C1` (stereo partly shown) stands 7.34; under `CC(C)(C)C(=O)N1C[C@H]2CN[C@H](C2)C1`, 7.59.

For the molecule `CC(=O)N1C[C@H]2CN[C@H](C2)C1`, the negative-log Ki (pKi) is 7.47. On the same count and under the same terms, under `C/C=C/CC(=O)N1C[C@@H]2CN[C@@H](C2)C1` stands 6.66.

Take `CCOC(=O)N1C[C@@H]2CN[C@@H](C2)C1`: the negative-log Ki (pKi) was 7.31. For the molecule `CS(=O)(=O)N1C[C@@H]2CN[C@@H](C2)C1`, the pKi was 5.64. Still for that read-out and setting: under `CC(C)S(=O)(=O)N1C[C@@H]2CN[C@@H](C2)C1` stands 7.80; under `COc1ccc(S(=O)(=O)N2C[C@@H]3CN[C@@H](C3)C2)cc1`, 6.24; under `CC1(C)CC1C(=O)N1C[C@@H]2CN[C@@H](C2)C1` (stereo partly shown), 7.51. As for `O=C(C1CC12CCC2)N1C[C@@H]2CN[C@@H](C2)C1` (stereo partly shown), the negative-log Ki (pKi) is 8.64. As to `CCCCC(=O)N1C[C@@H]2CN[C@@H](C2)C1`, the pKi was 7.11. As for `CC(C)OC(=O)N1C[C@H]2CN[C@H](C2)C1`, the negative-log Ki (pKi) was 7.36. For the molecule `COC(=O)N1C[C@H]2CN[C@H](C2)C1`, the pKi is 8.10. Still for that read-out and setting: under `CCNC(=O)N1C[C@@H]2CN[C@@H](C2)C1` stands 6.25; under `C=CCNC(=O)N1C[C@@H]2CN[C@@H](C2)C1`, 6.04. For the molecule `O=C(Nc1ccc(F)cc1)N1C[C@@H]2CN[C@@H](C2)C1`, the pKi was less than 5.00. Still for that read-out and setting: under `C=CCNC(=S)N1C[C@@H]2CN[C@@H](C2)C1` stands less than 5.00; under `CC(C)CC(=O)N1C[C@@H]2CN[C@@H](C2)C1`, 6.46.

As for `CCCOC(=O)N1C[C@@H]2CN[C@@H](C2)C1`, the pKi is 7.03. For `CN1C[C@H]2C[C@@H]1CN(C(=O)C1CC1)C2`, the negative logarithm of the Ki (pKi) is 7.74.

Take `CC1(C)C(C(=O)N2CC3CNC(C3)C2)C1(C)C` (stereo not shown): the pKi is 5.07.

For `O=C(CC(F)(F)F)N1C[C@@H]2CN[C@@H](C2)C1`, the pKi was 7.14. On the same count and under the same terms, under `CCS(=O)(=O)N1C[C@@H]2CN[C@@H](C2)C1` stands 5.92. As for `CCCS(=O)(=O)N1C[C@@H]2CN[C@@H](C2)C1`, the pKi is 5.55. Still for that read-out and setting: under `CCCCS(=O)(=O)N1C[C@@H]2CN[C@@H](C2)C1` stands 5.68; under `O=C(C1CC1)N1CC2CNCC1C2` (stereo not shown), 8.47. On to `O=C(C1CC1)N1C[C@@H]2CNC[C@H]1C2`, for which the pKi is 8.40. For `O=C([C@H]1C[C@H]1F)N1C[C@@H]2CNC[C@H]1C2`, the negative logarithm of the Ki (pKi) was 8.43.

Consider `O=C([C@H]1C[C@@H]1F)N1C[C@@H]2CNC[C@H]1C2`, for which the pKi is 7.96.

Turning to `O=C(C1CCC1)N1C[C@@H]2CNC[C@H]1C2`, the pKi is 7.64. Take `CCCC(=O)N1C[C@@H]2CNC[C@H]1C2`: the pKi was 7.47. On the same count and under the same terms, under `CC(C)C(=O)N1C[C@@H]2CNC[C@H]1C2` stands 6.23. With `CCC(=O)N1C[C@@H]2CNC[C@H]1C2`, the pKi is 7.57.

Take `COC(=O)N1C[C@@H]2CNC[C@H]1C2`: the pKi is 7.07. For `CC(=O)N1C[C@@H]2CNC[C@H]1C2`, the pKi was 5.89. Still for that read-out and setting: under `O=C([C@@H]1C[C@H]1F)N1C[C@H]2CNC[C@@H]1C2` stands 6.64; under `CCOC(=O)N1C[C@H]2CNC[C@@H]1C2`, 5.85.

The target of another assay is T2, rat α4β2 nAChR subtype (Rattus norvegicus, UniProt P09483+P12390).
T2 construct: Preparation of membranes from rat cortex; from tissue; host or cells: rat cerebral cortex membranes
T2 sequence (P09483 31-630): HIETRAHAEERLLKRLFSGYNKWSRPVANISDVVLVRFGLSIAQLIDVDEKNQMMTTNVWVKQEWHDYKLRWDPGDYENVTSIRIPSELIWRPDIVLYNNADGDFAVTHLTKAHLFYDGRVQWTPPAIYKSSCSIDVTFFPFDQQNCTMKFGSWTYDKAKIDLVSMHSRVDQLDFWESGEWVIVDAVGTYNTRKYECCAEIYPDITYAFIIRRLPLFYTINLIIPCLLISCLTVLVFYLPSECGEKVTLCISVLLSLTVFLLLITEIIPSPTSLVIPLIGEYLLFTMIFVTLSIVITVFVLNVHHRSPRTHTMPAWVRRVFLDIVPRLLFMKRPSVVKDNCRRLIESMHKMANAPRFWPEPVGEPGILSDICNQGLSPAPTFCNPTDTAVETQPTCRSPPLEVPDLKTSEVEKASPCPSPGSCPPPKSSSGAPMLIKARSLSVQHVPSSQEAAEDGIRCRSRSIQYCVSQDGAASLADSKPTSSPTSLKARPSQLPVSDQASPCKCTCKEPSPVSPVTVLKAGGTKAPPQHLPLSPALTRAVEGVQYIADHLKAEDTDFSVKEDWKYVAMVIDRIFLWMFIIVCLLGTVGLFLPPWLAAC
T2 sequence (P12390 25-500): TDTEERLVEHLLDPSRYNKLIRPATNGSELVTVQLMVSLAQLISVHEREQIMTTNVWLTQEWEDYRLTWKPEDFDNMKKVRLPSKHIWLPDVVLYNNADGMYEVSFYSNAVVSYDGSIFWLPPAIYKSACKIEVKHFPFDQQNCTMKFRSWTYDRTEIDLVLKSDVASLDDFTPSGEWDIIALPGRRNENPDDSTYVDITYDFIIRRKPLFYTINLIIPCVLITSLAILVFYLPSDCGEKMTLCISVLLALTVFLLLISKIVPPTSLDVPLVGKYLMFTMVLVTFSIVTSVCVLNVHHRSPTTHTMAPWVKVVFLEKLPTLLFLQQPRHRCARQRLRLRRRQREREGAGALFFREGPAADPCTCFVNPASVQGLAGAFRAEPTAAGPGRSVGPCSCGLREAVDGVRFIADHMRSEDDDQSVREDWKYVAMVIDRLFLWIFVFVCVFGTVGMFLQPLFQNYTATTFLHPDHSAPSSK
The assay is described as follows: Radioligand binding ([3H]nicotine) at rat α4β2 nAChR, rat cortex membranes.
Conditions: not given
On the procedure:
Preparation of membranes from rat cortex: Rats (female, Sprague-Dawley), weighing 150-250 g, were maintained on a 12 h light/dark cycle and were allowed free access to water and food supplied by PMI Nutrition International, Inc. Animals were anesthetized with 70% CO2, and then decapitated. Brains were removed and placed on an ice-cold platform. The cerebral cortex was removed and placed in 20 volumes (weight:volume) of ice-cold preparative buffer (137 mM NaCl, 10.7 mM KCl, 5.8 mM KH2PO4, 8 mM Na2HPO4, 20 mM HEPES (free acid), 5 mM iodoacetamide, 1.6 mM EDTA, pH 7.4); PMSF, dissolved in methanol to a final concentration of 100 μM, was added and the suspension was homogenized by Polytron. The homogenate was centrifuged at 18,000×g for 20 min at 4° C. and the resulting pellet was re-suspended in 20 volumes of ice-cold water. After 60 min incubation on ice, a new pellet was collected by centrifugation at 18,000×g for 20 min at 4° C. The final pellet was re-suspended in 10 volumes of buffer and stored at −20° C.
as §1, §2, §3
On to `O=C(Oc1ccc(F)cc1)N1C[C@H]2CN[C@H](C2)C1`, for which the negative logarithm of the Ki (pKi) is 7.35.

Staying with this assay, now noted: rat cortex membranes, 5 nM [3H]nicotine; read-out: Rat α4β2 Ki.
Consider `O=C(C1CCOC1)N1C[C@@H]2CN[C@@H](C2)C1` (stereo partly shown), for which the pKi is 6.85. On the same count and under the same terms, under `CC(=O)N1C[C@@H]2CN[C@@H](C2)C1` stands 6.24; under `CC(C)OC(=O)N1C[C@@H]2CN[C@@H](C2)C1`, 6.01. In the case of `COCCOC(=O)N1C[C@@H]2CN[C@@H](C2)C1`, the pKi was 6.00. As to `CC(C)S(=O)(=O)N1C[C@@H]2CN[C@@H](C2)C1`, the pKi is 6.12.

On to `O=C(CC(F)(F)F)N1C[C@@H]2CN[C@@H](C2)C1`, for which the pKi is 6.96.

Still in this assay, the particulars now being: read-out: Rat α4β2 Ki.
Regarding `COC(=O)N1CC2CNC(C2)C1` (stereo not shown), the pKi is 8.17. On the same count and under the same terms, under `CC(C)(C)C(=O)N1C[C@H]2CN[C@H](C2)C1` stands 7.17; under `CC(=O)N1C[C@H]2CN[C@H](C2)C1`, 7.85; under `COC(=O)N1C[C@@H]2CN[C@@H](C2)C1`, 7.00. With `COCCOC(=O)N1C[C@H]2CN[C@H](C2)C1`, the pKi was 7.13. Consider `C/C=C/CC(=O)N1C[C@@H]2CN[C@@H](C2)C1`, for which the pKi is 6.74. As for `CCOC(=O)N1C[C@@H]2CN[C@@H](C2)C1`, the negative logarithm of the Ki (pKi) is 7.60. The same measure, in the same setting: under `COc1ccc(S(=O)(=O)N2C[C@@H]3CN[C@@H](C3)C2)cc1` stands 6.12; under `CC1(C)CC1C(=O)N1C[C@@H]2CN[C@@H](C2)C1` (stereo partly shown), 7.31; under `O=C(C1CC12CCC2)N1C[C@@H]2CN[C@@H](C2)C1` (stereo partly shown), 8.52. The same measure, in the same setting: under `CCCCC(=O)N1C[C@@H]2CN[C@@H](C2)C1` stands 7.44. On to `CC(C)OC(=O)N1C[C@H]2CN[C@H](C2)C1`, for which the negative logarithm of the Ki (pKi) is 7.62.

For `COC(=O)N1C[C@H]2CN[C@H](C2)C1`, the pKi was 8.32. Regarding `CCNC(=O)N1C[C@@H]2CN[C@@H](C2)C1`, the negative logarithm of the Ki (pKi) is 6.80.

For `C=CCNC(=O)N1C[C@@H]2CN[C@@H](C2)C1`, the pKi was 6.89. Take `O=C(Nc1ccc(F)cc1)N1C[C@@H]2CN[C@@H](C2)C1`: the negative-log Ki (pKi) is 5.66. With `C=CCNC(=S)N1C[C@@H]2CN[C@@H](C2)C1`, the pKi was 5.00. On the same count and under the same terms, under `CC(C)CC(=O)N1C[C@@H]2CN[C@@H](C2)C1` stands 6.49. `CCCOC(=O)N1C[C@@H]2CN[C@@H](C2)C1`: the negative logarithm of the Ki (pKi) is 7.37.

On to `CN1C[C@H]2C[C@@H]1CN(C(=O)C1CC1)C2`, for which the negative-log Ki (pKi) was 7.72. Turning to `O=C(C1CC1)N1CC2CNCC1C2` (stereo not shown), the pKi is 8.25. Regarding `O=C(C1CC1)N1C[C@@H]2CNC[C@H]1C2`, the pKi is 8.15. Same read-out and setting: under `O=C([C@H]1C[C@H]1F)N1C[C@@H]2CNC[C@H]1C2` stands 8.54; under `COC(=O)N1C[C@@H]2CNC[C@H]1C2`, 7.40.
